Biological target: T1, androgen receptor (AR) (Homo sapiens, UniProt P10275, T878A)
T1 construct: LNCaP cells express endogenous AR; endogenous in cells; host or cells: LNCaP cells
T1 sequence (P10275 1-920 T878A): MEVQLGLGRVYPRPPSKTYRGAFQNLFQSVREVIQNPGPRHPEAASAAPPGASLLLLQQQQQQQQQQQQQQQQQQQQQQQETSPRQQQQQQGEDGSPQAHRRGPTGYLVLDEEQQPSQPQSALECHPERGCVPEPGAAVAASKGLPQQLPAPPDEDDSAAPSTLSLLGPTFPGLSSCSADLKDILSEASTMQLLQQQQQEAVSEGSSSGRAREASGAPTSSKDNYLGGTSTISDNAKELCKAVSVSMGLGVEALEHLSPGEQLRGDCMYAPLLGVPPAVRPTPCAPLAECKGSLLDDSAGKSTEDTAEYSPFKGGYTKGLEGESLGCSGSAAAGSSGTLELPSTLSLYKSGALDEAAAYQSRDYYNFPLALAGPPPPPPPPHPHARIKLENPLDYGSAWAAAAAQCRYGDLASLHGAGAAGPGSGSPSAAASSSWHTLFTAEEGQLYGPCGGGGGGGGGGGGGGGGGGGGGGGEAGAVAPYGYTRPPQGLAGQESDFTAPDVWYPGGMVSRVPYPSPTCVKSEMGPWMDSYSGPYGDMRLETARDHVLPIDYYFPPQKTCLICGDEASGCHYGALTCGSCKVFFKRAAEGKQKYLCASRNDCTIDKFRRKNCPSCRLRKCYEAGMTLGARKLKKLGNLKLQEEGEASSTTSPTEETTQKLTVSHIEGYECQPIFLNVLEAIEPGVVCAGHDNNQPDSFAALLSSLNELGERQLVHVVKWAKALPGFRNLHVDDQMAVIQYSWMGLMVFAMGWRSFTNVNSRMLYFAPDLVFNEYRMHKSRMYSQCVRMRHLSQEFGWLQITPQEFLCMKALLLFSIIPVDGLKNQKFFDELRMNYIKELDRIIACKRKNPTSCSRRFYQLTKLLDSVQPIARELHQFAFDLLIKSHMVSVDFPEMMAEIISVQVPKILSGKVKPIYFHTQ
Assay: LNCaP PSA (6.1 kb)-luciferase assay (R1881-induced)
Assay type: cell-based
Conditions: for EXPERIMENTAL DATA (activity in the described assays): LNCaP cells transfected with PSA (6.1 kb)-luciferase, 1 h pre-treatment, R1881 1 nM, 48 h; for androgen receptor modulating activity: LNCaP PSA (6.1 kb)-luciferase assay, versus DMSO and EPI-001 controls
Text: LNCaP cells were employed initially for all experiments because they are well-differentiated human prostate cancer cells in which ligand-independent activation of the AR by FSK has been characterized (Nazareth et al 1996 J. Biol. Chem. 271, 19900-19907; and Sadar 1999 J. Biol. Chem. 274, 7777-7783). LNCaP cells express endogenous AR and secrete prostate-specific antigen (PSA) (Horoszewicz et al 1983 Cancer Res. 43, 1809-1818). LNCaP cells can be grown either as monolayers in cell culture or as tumors in the well-characterized xenograft model that progresses to androgen independence in castrated hosts (Sato et al 1996 J. Steroid Biochem. Mol. Biol. 58, 139-146; Gleave et al 1991 Cancer Res. 51, 3753-3761; Sato et al 1997 Cancer Res. 57, 1584-1589; and Sadar et al 2002 Mol. Cancer Ther. 1(8), 629-637). […] Small molecules that specifically target the AR-NTD should have no effect on PC3 cells. This means that they should not alter the proliferation of PC3 cells if they specifically block the AR to mediate their inhibitory effects. R1881 was employed since it is stable and avoids problems associated with the labile physiological ligand dihydrotestosterone (DHT). Reporter specificity may be determined using several alternative reporter gene constructs. Some well characterized ARE-driven reporter gene constructs that have been used extensively are the PSA (6.1 kb) enhance/promoter which contains several AREs and is highly inducible by androgens as well as by FSK (Ueda et al 2002 A J. Biol. Chem. 277, 7076-7085) and the ARR3-thymidine kinase (tk)-luciferase, which is an artificial reporter construct that contains three tandem repeats of the rat probasin ARE1 and ARE2 regions upstream of a luciferase reporter (Snoek et al 1996 J. Steroid Biochem. Mol. Biol. 59, 243-250).
LNCaP cells were transiently cotransfected with PSA (6.1 kb)-luciferase (0.25 μg/well) in 24-well plates for 24 h prior to pre-treatment with compounds for 1 hour before the addition of synthetic androgen, R1881 (1 nM) to induce PSA production or vehicle. The total amount of plasmid DNA transfected was normalized to 0.75 μg/well by the addition of the empty vector. After 48 h of incubation with R1881, the cells were harvested, and relative luciferase activity was determined. Test compounds were added to the cells at various concentrations and activity for each treatment was normalized to the predicted maximal activity induction (in the absence of test compounds, vehicle only). Plotting of sigmoidal curves (Boltzmann Function) and IC50 calculations were done using OriginPro 8.1 Sofware (Northampton, Mass., USA).
Using the LNCaP PSA (6.1 kb)-luciferase assay described above, various compounds described herein were tested against DMSO and EPI-001 controls. In FIG. 1, a comparison is made between EPI-035 and DMSO and EPI-001 or EPI-026 from 1 μM to 10 μM. […] In FIGS. 3A and 3B, EPI-040 and EPI-051 are compared to DMSO and EPI-001 at 1 μM to 30 μM and 2.5 μM to 35 μM respectively. In FIGS. 4A and 4B, EPI-043 is compared to DMSO and EPI-001 at 5 μM to 35 μM 0.25 μM to 25 μM respectively.
Similarly, in FIG. 7B concentrations of EPI-6000, EPI-6001, EPI-6002, and EPI-6003 are shown at 12.5 μM and 25 μM as compared to the DMSO control.

| SMILES | EXPERIMENTAL DATA (activity in the described assays) | androgen receptor modulating activity | further results |
| --- | --- | --- | --- |
| CC(C)(c1ccc(OCCCCl)cc1)c1ccc(OCCCCl)cc1 [drawing 871] | Active | – | – |
| OC(CCl)COc1ccccc1Cc1ccccc1OCC(O)CCl (centres unmarked) [drawing 878] | Active | – | – |
| C#CCOc1ccc(C(C)(C)c2ccc(OC[C@@H](O)CCl)cc2)cc1 [EPI-046] | – | showed androgen receptor modulating activity | – |
| CC(C)(c1ccc(OCCCCl)cc1)c1ccc(OCCCCl)cc1 [EPI-038] | – | showed androgen receptor modulating activity | – |
| CC(C)(c1ccc(OCC(O)CCl)cc1)c1ccccc1OCC(O)CO (stereo not drawn) [EPI-6002] | – | showed androgen receptor modulating activity | – |
| C#CCOc1ccc(C(C)(C)c2ccc(OCC(O)CO)cc2)cc1 (centres unmarked) [drawing 877] | Active | – | – |
| CC(C)(c1ccc(OCCO)cc1)c1ccc(OCCCCl)cc1 [drawing 869] | Active | – | – |
| CC(C)(c1ccc(OCC(O)CCl)cc1)c1ccccc1OCC(O)CO (stereo not drawn) [EPI-6003] | – | showed androgen receptor modulating activity | – |
| CC(C)(c1ccc(OCC(O)CCl)cc1)c1ccccc1OCC(O)CO (stereo not drawn) [EPI-6000] | – | showed androgen receptor modulating activity | – |
| CC(=O)OCCOc1ccc(C(C)(C)c2ccc(OCCCCl)cc2)cc1 [EPI-037] | – | showed androgen receptor modulating activity | – |
| CC(C)(c1ccc(OCC(O)CCl)cc1)c1ccccc1OCC(O)CO (stereo not drawn) [EPI-6001] | – | showed androgen receptor modulating activity | – |
| CC(C)(c1ccc(OCCCCCCCl)cc1)c1ccc(OCCOCCOCCO)cc1 [drawing 874] | Active | – | – |
| C#CCOc1ccc(C(C)(C)c2ccc(OCC(O)CO)cc2)cc1 (stereo not drawn) [EPI-051] | – | showed androgen receptor modulating activity | – |
| CC(C)(c1ccc(OCCO)cc1)c1ccc(OCCCCl)cc1 [EPI-035] | – | showed androgen receptor modulating activity | – |
| CC(=O)OCCOc1ccc(C(C)(C)c2ccc(OCCCCl)cc2)cc1 [drawing 870] | Active | – | – |
| C#CCOc1ccc(C(C)(C)c2ccc(OC[C@H](O)CCl)cc2)cc1 [drawing 876] | Active | – | – |
| CC(C)(c1ccc(OCC(O)CCl)cc1)c1ccccc1OCC(O)CO (centres unmarked) [drawing 879] | Active | – | – |
| CC(C)(c1ccc(OCCCCCCCl)cc1)c1ccc(OCCOCCOCCO)cc1 [EPI-043] | – | showed androgen receptor modulating activity | – |
| C#CCOc1ccc(C(C)(C)c2ccc(OC[C@@H](O)CCl)cc2)cc1 [drawing 875] | Active | – | – |
| CC(C)(c1ccc(O)cc1)c1ccc(OCCOCCOCCO)cc1 [EPI-040] | – | showed androgen receptor modulating activity | – |
| OC(CCl)COc1ccccc1Cc1ccccc1OCC(O)CCl (stereo not drawn) [EPI-900] | – | showed androgen receptor modulating activity | dose response as compared to the DMSO control (FIG. 7A, 1 μM to 35 μM): showed a dose response |
| C#CCOc1ccc(C(C)(C)c2ccc(OC[C@H](O)CCl)cc2)cc1 [EPI-047] | – | showed androgen receptor modulating activity | – |
